Data from article PMC6009911, “Inhibition of human cytochromes P450 2A6 and 2A13 by flavonoids, acetylenic thiophenes and sesquiterpene lactones from Pluchea indica and Vernonia cinerea” (Journal of Enzyme Inhibition and Medicinal Chemistry, 2017).
Where two headings read alike, the source gives them in different places.

Assays:
Type in all cases: biochemical
CYP2A13 [1] = target: T1, CYP2A13 (Homo sapiens, UniProt Q16696); assay: Effects of trapping agents and dialysis on inactivation of CYP2A13; conditions: CYP2A13 inhibition reaction mixture, probe coumarin, compound 5 µM
T1 construct: made in house
T1 sequence (Q16696 1-494): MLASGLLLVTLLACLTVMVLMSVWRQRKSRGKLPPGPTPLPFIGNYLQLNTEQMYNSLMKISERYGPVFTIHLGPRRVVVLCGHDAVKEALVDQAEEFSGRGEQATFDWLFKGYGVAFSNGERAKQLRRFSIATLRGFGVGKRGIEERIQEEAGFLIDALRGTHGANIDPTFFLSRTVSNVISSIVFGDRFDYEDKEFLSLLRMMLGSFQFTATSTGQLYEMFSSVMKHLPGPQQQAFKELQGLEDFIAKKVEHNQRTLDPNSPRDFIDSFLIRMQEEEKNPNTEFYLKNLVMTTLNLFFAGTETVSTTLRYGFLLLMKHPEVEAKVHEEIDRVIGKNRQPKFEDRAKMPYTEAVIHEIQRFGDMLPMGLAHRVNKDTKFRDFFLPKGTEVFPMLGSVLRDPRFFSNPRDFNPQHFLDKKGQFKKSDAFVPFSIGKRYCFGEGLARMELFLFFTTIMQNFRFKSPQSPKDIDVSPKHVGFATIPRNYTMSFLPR
Outline: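 Recombinant enzyme preincubated with inhibitor and NADPH for 0, 10, 20 and 30 min; KI and kinact taken from double-reciprocal plots of kobs versus inhibitor concentration by linear regression. Reversibility probed by dialysis and by adding trapping agents (GSH, semicarbazide, catalase or potassium ferricyanide). Methoxsalen served as mechanism-based control.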

CYP2A13 [2] = target: T1, CYP2A13; assay: Mechanism-based (time- and NADPH-dependent) inactivation of CYP2A13
Outline: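 Inhibitor preincubated with enzyme and NADPH for 0, 10, 20 and 30 min before the reaction. KI and Kinact derived from double reciprocal plots of kobs versus inhibitor concentration by linear regression; methoxsalen served as reference inactivator.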

CYP2A6 [3] = target: T2, CYP2A6 (Homo sapiens, UniProt P11509); assay: Inhibition of CYP2A6-mediated coumarin 7-hydroxylation, enzymatic reconstitution assay; set-up: made in house
T2 sequence (P11509 1-494): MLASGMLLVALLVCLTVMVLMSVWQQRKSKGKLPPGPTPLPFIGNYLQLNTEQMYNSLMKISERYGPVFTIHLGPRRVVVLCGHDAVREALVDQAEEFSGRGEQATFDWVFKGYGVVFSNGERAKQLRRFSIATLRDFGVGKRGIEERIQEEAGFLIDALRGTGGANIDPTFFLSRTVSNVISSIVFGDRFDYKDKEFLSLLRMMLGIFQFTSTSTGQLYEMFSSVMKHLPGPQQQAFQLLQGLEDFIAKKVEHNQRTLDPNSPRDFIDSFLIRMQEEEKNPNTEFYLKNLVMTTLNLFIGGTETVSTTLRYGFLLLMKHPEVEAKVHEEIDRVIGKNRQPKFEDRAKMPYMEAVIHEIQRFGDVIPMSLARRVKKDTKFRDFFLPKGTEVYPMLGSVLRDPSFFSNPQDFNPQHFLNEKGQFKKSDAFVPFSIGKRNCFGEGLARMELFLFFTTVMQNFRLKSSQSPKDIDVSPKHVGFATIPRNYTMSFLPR
Protocol: Inhibitory effect of plant extracts, fractions, subfractions and constituents was determined by inhibition assay on CYP2A6- and CYP2A13-mediated coumarin 7-hydroxylation. The recombinant human CYP2A6, CYP2A13 and rat NADPH-dependent cytochrome P450 oxidoreductase (CYPOR) proteins were expressed, purified, according to the methods previously described. […] Rate of 7-hydroxycoumarin product formation was measured on spectrofluorometer (Shimadzu, Kyoto, Japan) at λex = 355 nm, λem = 460 nm. Inhibition effects were determined by incubation with extracts, fractions or purified compounds with coumarin substrate in the reaction mixture and calculated as per cent relative inhibition compared with vehicle control reaction[20] and IC50 values were calculated using GraphPad Prism 5 (GraphPad Software Inc., La Jolla, CA).
(§1) MBI requires NADPH and time to generate reactive intermediate as inhibitor and ultimately inactivates the enzyme. MBI was evaluated by pre-incubation with each test inhibitor in the reaction at different time periods (0, 10, 20 and 30 min) in the presence of NADPH for time-dependent assay, as described. The apparent inactivation constants, KI and Kinact, were obtained from double reciprocal plots of kobs versus inhibitor concentrations by linear regression analysis on GraphPad Prism 5. Methoxsalen was used as a control mechanism-based inhibitor for time- and NADPH-dependent inhibition assays.

CYP2A6 [4] = target: T2, CYP2A6; assay: Inhibition of CYP2A6-mediated nicotine metabolism; set-up: made in house; conditions: compound at IC50 value; nicotine 50 μM; 30 min; Supplemental Figure S2
Protocol: Supplementary Figure S2. Inhibition effects of thiophene 11 on CYP2A6-mediated […]
mediated nicotine metabolism (B). Nicotine metabolism in the presence and absence of inhibitory test compounds, at IC50 value, was performed by incubation of the reaction mixture with nicotine substrate (a final concentration of 50 μM) prior to initiation of each reaction with 50 μM NADPH at room temperature. Each reaction was terminated by addition of ice-cold acetronitrile at 30 min incubation and 50 pmol 7-hydroxycoumarin as internal standard was added. The reaction was centrifuged (12,000 rpm, 10 min, 4 °C) and 20 μl of each sample was analyzed on symmetry RP-C18 column (3.9×150 mm). Gradient condition was isocratic of 12% ACN: 2-propanol (7:3) in 10 mM potassium phosphate buffer (pH 7.4) at flow rate of 1 ml/min. The nicotine peak area in each reaction was compared with that of time zero. The enzyme activity was determined as percent substrate consumption over 30 min. The reactions were […]
(1 picture or pasted object on this page, not shown here)

CYP2A13 [5] = target: T1, CYP2A13; assay: Inhibition of CYP2A13-mediated coumarin 7-hydroxylation, enzymatic reconstitution assay
Outline: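 Purified recombinant CYP2A6 or CYP2A13 reconstituted with rat CYPOR; coumarin 7-hydroxylation read by 7-hydroxycoumarin fluorescence (ex 355/em 460 nm), inhibition as % of vehicle control with IC50 fitted.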

CYP2A6 [6] = target: T2, CYP2A6; assay: Effects of trapping agents and dialysis on inactivation of CYP2A6; set-up: made in house; conditions: CYP2A6 inhibition reaction mixture, probe coumarin, compound 5 µM
Protocol: as §1
To explore whether inactivation of CYP2As by thiophenes 9–11 and of CYP2A13 by hirsutinolides 5-8 could be reversed, the removal of reversible inhibitory compounds by dialysis and addition of trapping agents (GSH, semicarbazide, catalase or potassium ferricyanide) in the inhibition reaction mixture were performed. […] Similarly, mechanism-based inactivation of both CYP2A6 and CYP2A13 by thiophenes 9–11 could not be reversed (Table 3).

CYP2A6 [7] = target: T2, CYP2A6; assay: Mechanism-based (time- and NADPH-dependent) inactivation of CYP2A6; set-up: made in house
Protocol: as §1

[8] = read-out: Per cent remaining activity, 70 μM K3Fe(CN)6
[9] = read-out: Per cent remaining activity, 2 mM GSH
[10] = read-out: Per cent remaining activity, 5 mM semicarbazide
[11] = read-out: Per cent remaining activity, 2000 U catalase
[12] = read-out: Per cent remaining activity, Dialysis (+) NADPH
[13] = read-out: Per cent remaining activity, Dialysis (−) NADPH
[14] = read-out: Per cent remaining activity, Pre-incubation
[15] = time- and concentration-dependent inactivation

For `CC#Cc1ccc(C#CC#CC(O)CO)s1` (centres unmarked) [Thiophene 11, 2-(prop-1-inyl)-5–(5,6-dihydroxyhexa-1,3-diinyl) thiophene], the activity at 5 µM (CYP2A13 [1]; [8]) was 18.87 ± 0.18%, the activity at 5 µM (CYP2A13 [1]; [9]) was 23.5 ± 1.72% and the activity at 5 µM (CYP2A13 [1]; [10]) was 19.6 ± 2.73%. The activity at 5 µM (CYP2A13 [1]; [11]) was 19.5 ± 2.95%, the activity at 5 µM (CYP2A13 [1]; [12]) was 19.6 ± 4.21% and the activity at 5 µM (CYP2A13 [1]; [13]) was 96.84 ± 0.73%. For the same molecule, the activity at 5 µM (CYP2A13 [1]; [14]) was 20.2 ± 2.76%, the kinact (CYP2A13 [2]; pre-incubation 0-30 min with NADPH) was 0.000833 s⁻¹ and the KI (inactivation) (CYP2A13 [2]; pre-incubation 0-30 min with NADPH, read-out: CYP2A13 KI (inactivation constant)) was 670 ± 80 nM. For the same molecule, the “KI, CYP2A13 (in Figure 2)” value (CYP2A13 [2]; [15]) was 0.67 ± 0.08, the “CYP2A6 Mode of inhibition” value (CYP2A6 [3]) was “Mixed type” and the IC50 (CYP2A6 [3]; 10-min pre-incubation in the presence of NADPH, read-out: IC50 CYP2A6 Pre-incubation) was 180 ± 10 nM. The IC50 (CYP2A6 [3]; coincubation, coumarin 2 µM, read-out: IC50 CYP2A6 Coincubation) was 3900 ± 200 nM, the Ki (CYP2A6 [3]; coumarin 0–40 µM) was 1800 ± 180 nM and the “inhibition of CYP2A6-mediated nicotine metabolism” value (CYP2A6 [4]) was “showed inhibition”. For the same molecule, the “CYP2A13 Mode of inhibition” value (CYP2A13 [5]) was “Mixed type”, the IC50 (CYP2A13 [5]; 10-min pre-incubation in the presence of NADPH, read-out: IC50 CYP2A13 Pre-incubation) was 1470 ± 120 nM and the IC50 (CYP2A13 [5]; coincubation, coumarin 2 µM, read-out: IC50 CYP2A13 Coincubation) was 2400 ± 330 nM. For the same molecule, the Ki (CYP2A13 [5]; coumarin 0–40 µM) was 1080 ± 50 nM, the activity at 5 µM (CYP2A6 [6]; [8]) was 11.2 ± 2.96% and the activity at 5 µM (CYP2A6 [6]; [9]) was 8.42 ± 0.9%. The activity at 5 µM (CYP2A6 [6]; [10]) was 12.9 ± 3.47%, the activity at 5 µM (CYP2A6 [6]; [11]) was 14.4 ± 1.41% and the activity at 5 µM (CYP2A6 [6]; [12]) was 10.1 ± 1.84%. It also gave an activity at 5 µM (CYP2A6 [6]; [13]) of 82.4 ± 2.49%, an activity at 5 µM (CYP2A6 [6]; [14]) of 12.5 ± 1.93% and a kinact (CYP2A6 [7]; human, recombinant human CYP2A6, probe coumarin, pre-incubation 0-30 min with NADPH) of 0.00167 s⁻¹. For the same molecule, the KI (inactivation) (CYP2A6 [7]; human, recombinant human CYP2A6, probe coumarin, pre-incubation 0-30 min with NADPH, read-out: CYP2A6 KI (inactivation constant)) was 110 ± 20 nM and the “KI, CYP2A6 (in Figure 2)” value (CYP2A6 [7]; [15]) was 0.11 ± 0.02.
